From patent publication US20150345047A1, “SYSTEMS AND METHODS FOR IDENTIFYING DRUG COMBINATIONS FOR REDUCED DRUG RESISTANCE IN CANCER TREATMENT” (Memorial Sloan Kettering Cancer Center, priority 2014, published 2015)

Key:
Type in all cases: cell-based
S6pS240 = assay: Western blot IC40 of downstream effector readout; conditions: concentration inhibiting S6pS240 readout by 40%, SkMel133
Description: (§1) In total, cells were treated with 89 unique perturbations (Table 3). In paired combinations, each drug concentration was selected to inhibit the readout for the presumed target or the downstream effectors by 40% (IC40) as determined by Western Blot experiments. In single agent perturbations, each drug is applied at two different concentrations, IC40 and 2×IC40.

GSK3pS21 = assay: Western blot IC40 of downstream effector readout; conditions: concentration inhibiting GSK3pS21 readout by 40%, SkMel133
Description: as §1

AKTpS473 = assay: Western blot IC40 of downstream effector readout; conditions: concentration inhibiting AKTpS473 readout by 40%, SkMel133
Description: as §1

MAPK1pT202 = assay: Western blot IC40 of downstream effector readout; conditions: concentration inhibiting MAPK1pT202 readout by 40%, SkMel133
Description: as §1

SkMel133 cells = assay: Cell viability, resazurin assay; conditions: highest doses applied
Description: All phenotypic measurements were made in perturbation conditions identical to those in proteomic measurements. Cell viability and cell cycle progression were measured 72 hours after drug treatment using the Resazurin assay and flow cytometry analysis respectively. The percentage of cells in the G1, G2/M, and S phases and sub-G1 fraction were recorded based on the respective distribution of DNA content in each phase.

BRD4 = assay: Western blot of BRD4 level; conditions: 24 hours after treatment
Description: (§2) FIGS. 6A-6E illustrate the combined targeting of c-Myc with MEK and BRAF leads to synergistic response in melanoma cells. […] The leftward shift of isocurves implies synergistic interactions between the applied perturbations. u denotes strength of in silico perturbations. […] The BRD4 level is unchanged in response to JQ1 treatment. […] C-Myc expression is targeted with BRD4 inhibitor, JQ1. […] Cell viability is measured using the resazurin assay. […] The combination index (CI) calculated using the drug dose response curves quantifies the drug interactions between JQ1, MEKi and RAFi (left panel). CI for a given level of inhibition is a measure of the fractional shift between the combination doses (C1 and C2) and the single agent's inhibitory concentration (Cx,1, Cx,2). It is formulated as CI=(C1/Cx,1)[…](C2/Cx,2). Amax is the response of melanoma cells to JQ1, MEKi and RAFi at highest doses applied (right panel). 1-Amax is the fraction of cells alive in response to highest drug dose normalized with respect to the non-drug treated condition. […] 86% of cells are in G1 state 48 hours after JQ1 treatment, while 42% of the cells are in G1 state before drug treatment (error bars: ±SEM in 3 biological replicates).

c-Myc = assay: Western blot of c-Myc expression; conditions: 24 hours after drug treatment, SkMel133
Description: as §2
First, it was postulated whether c-Myc levels in SkMel133 cells could be targeted using JQ1. […]

4EBP1pS65 = assay: Western blot IC40 of downstream effector readout; conditions: concentration inhibiting 4EBP1pS65 readout by 40%, SkMel133
Description: as §1

STAT3pY705 = assay: Western blot IC40 of downstream effector readout; conditions: concentration inhibiting STAT3pY705 readout by 40%, SkMel133
Description: as §1

P27/Kip1 = assay: Western blot IC40 of downstream effector readout; conditions: concentration changing P27/Kip1 readout by 40%, SkMel133
Description: as §1

CO[C@H]1C[C@@H]2CC[C@@H](C)[C@@](O)(O2)C(=O)C(=O)N2CCCC[C@H]2C(=O)O[C@H]([C@H](C)C[C@@H]2CC[C@@H](OC(=O)C(C)(CO)CO)[C@H](OC)C2)CC(=O)[C@H](C)/C=C(\C)[C@@H](O)[C@@H](OC)C(=O)[C@H](C)C[C@H](C)/C=C/C=C/C=C/1C [Temsirolimus]
Dose 1 (IC40) (S6pS240): 0.3 nM

CC(C)(C)c1nc2c3cc[nH]c(=O)c3c3cc(F)ccc3c2[nH]1 [P6]
Dose 1 (IC40) (GSK3pS21): 20 nM

FC(F)c1nc2ccccc2n1-c1nc(N2CCOCC2)nc(N2CCOCC2)n1 [ZSTK474]
Dose 1 (IC40) (AKTpS473): 600 nM

CCCS(=O)(=O)Nc1ccc(F)c(C(=O)c2c[nH]c3ncc(Cl)cc23)c1F [PLX4720]
Dose 1 (IC40) (MAPK1pT202): 60 nM

O=c1[nH]c2ccccc2n1C1CCN(Cc2ccc(-c3nc4cc5nc[nH]c5cc4nc3-c3ccccc3)cc2)CC1 [AKTi 1/2]
Dose 1 (IC40) (AKTpS473): 5.000 nM

Cc1sc2c(c1C)C(c1ccc(Cl)cc1)=N[C@@H](CC(=O)OC(C)(C)C)c1nnc(C)n1-2 [JQ1]
maximal effect level (Amax, response to the drugs at highest doses) (SkMel133 cells): 10%
BRD4 level (BRD4): unchanged
c-Myc expression level (c-Myc): reduced

COc1ccc(C2=NC(c3ccc(Cl)cc3)C(c3ccc(Cl)cc3)N2C(=O)N2CCNC(=O)C2)c(OC(C)C)c1 (stereo not shown) [Nutlin]
Dose 1 (IC40) (4EBP1pS65): 3,000 nM

Cn1cc(C2=C(c3cn(CCCN)c4ccccc34)C(=O)NC2=O)c2ccccc21 [RO-31-7549]
Dose 1 (IC40) (S6pS240): 3500 nM

O=C(NOC[C@H](O)CO)c1ccc(F)c(F)c1Nc1ccc(I)cc1F [PD0325901]
Dose 1 (IC40) (MAPK1pT202): 1.5 nM

O=[N+]([O-])c1ccc2c(c1)S(=O)(=O)C=C2 [Stattic]
Dose 1 (IC40) (STAT3pY705): 600 nM

O=C(CCCCCCSc1ccc2ccccc2c1)NO [HNHA]
Dose 1 (IC40) (P27/Kip1): 6,000 nM
